Experimental data published in patent US20250179047A1, “5-[7-(3,4-DIHYDRO-1H-ISOQUINOLINE-2-CARBONYL)-1,2,3,4 TETRAHYDROISOQUINOLIN-6-YL]-1H-PYRROLE-3-CARBOXAMIDE DERIVATIVES, PHARMACEUTICAL COMPOSITIONS CONTAINING THEM AND THEIR USES AS PRO-APOPTOTIC AGENTS” (LES LABORATOIRES SERVIER, priority 2022, published 2025).
pIC50, pKi: −log10 of the molar value.

How the values were obtained:
BCL2 G101V [1] = assay: TR-FRET competitive binding assay, BCL2 G101V; parameters: species or system human; details: ratio Ki BCL2 G101V / Ki BCL2 WT
Outline: (§1)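 Terbium-labelled N-terminal Halo-fusion BCL2 or BCLXL (E. coli), 0.5 nM, competed against fluorescein-labelled PUMA peptide (2 or 20 nM) for 2 h at 23° C in 50 mM Hepes pH 7.5, 150 mM NaCl, 5% DMSO. TR-FRET 520/495 nm ratio gave IC50 by four-parameter fit; Ki derived from IC50.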

BCL2 G101V [2] = target: BCL2 G101V (Homo sapiens, UniProt P10415, G101V); assay: TR-FRET competitive binding assay, BCL2 G101V; details: BCL2 G101V; Ki determined from IC50; read-out: TR_FRET EKI_Bcl2 G101V
Outline: as §1

KMS12PE Bcl2 G101V = assay: In vitro cytotoxicity CellTiterGlo 72 h, KMS12PE Bcl2 G101V; assay type: cell-based; details: Homo sapiens, KMS-12-PE, read-out: C50 nM, KMS12PE Bcl2 G101V
Procedure: (§2) KMS-12-PE (ACC 606) were purchased from the Leibniz-Institute DSMZ (Braunschweig, Germany) and were grown at 37° C. in a humidified atmosphere with 5% CO2 in media recommended by the suppliers. Lentiviral particles containing Bcl-2 wild type (also named “Bcl2 WT”), Bcl-2 mutated on G101V (also named “Bcl2 G101V”), Bcl-2 mutated on D103Y (also named “Bcl2 D103Y”), Bcl-2 mutated on D103V (also named “Bcl2 D103V”), Bcl-2 mutated on D103E (also named “Bcl2 D103E”), Bcl-2 mutated on F104I (also named “Bcl2 F104I”), Bcl-2 mutated on F104L (also named “Bcl2 F104L”), Bcl-2 mutated on D111A (also named “Bcl2 D111A”), Bcl-2 mutated on A113G (also named “Bcl2 A113G”), Bcl-2 mutated on R129L (also named “Bcl2 R129L”), Bcl-2 mutated on V156D (also named “Bcl2 V156D”) were cloned into pcLV-CMV-DEST-IRES-TagRFP. Lentiviral particles (1×10^6) were mixed with Polybrene at 8 μg/ml and transduced by spinoculation for 1 h at 32° C. and incubated overnight. After 8 days, TagRFP positive-cells were sorted by FACS. BCL2 expression was monitored by immunoblotting using anti-Flag and anti-BCL2 antibodies. Cells were seeded into 96-wells plates and treated with 1:3.16 serial dilution of compounds (9 different concentrations). Cell viability was assessed using CellTiterGlo reagent following treatment for 72 h. Results were normalized to the viability of cells without compounds (control wells). The C50 values were calculated using nonlinear regression algorithms in XCell software.

KMS12PE Bcl2 D103V = assay: In vitro cytotoxicity CellTiterGlo 72 h, KMS12PE Bcl2 D103V; assay type: cell-based; details: Homo sapiens, KMS-12-PE, read-out: C50 nM, KMS12PE Bcl2 D103V
Procedure: as §2

KMS12PE Bcl2 F104L = assay: In vitro cytotoxicity CellTiterGlo 72 h, KMS12PE Bcl2 F104L; assay type: cell-based; details: Homo sapiens, KMS-12-PE, read-out: C50 nM, KMS12PE Bcl2 F104L
Procedure: as §2

KMS12PE Bcl2 V156D = assay: In vitro cytotoxicity CellTiterGlo 72 h, KMS12PE Bcl2 V156D; assay type: cell-based; details: Homo sapiens, KMS-12-PE, read-out: C50 nM, KMS12PE Bcl2 V156D
Procedure: as §2

BCL2 D103Y = BCL2 D103Y (Homo sapiens, UniProt P10415, D103Y); assay: TR-FRET competitive binding assay, BCL2 D103Y; details: Ki determined from IC50, read-out: TR_FRET EKI_Bcl2 D103Y
Outline: as §1

**Q.** For `Cc1c(C(=O)N(c2ccc(O)cc2)c2cc(C#N)n(C(F)F)c2C)cc(-c2cc3c(cc2C(=O)N2Cc4ccccc4C[C@H]2CN2CCCCC2)CN(C(=O)Cc2ccc(OCCN4CCOCC4)cc2F)CC3)n1C` [Example 78, N-[5-cyano-1-(difluoromethyl)-2-methylpyrrol-3-yl]-5-[2-(2-{2-fluoro-4-[2-(morpholin-4-yl)ethoxy]phenyl}acetyl)-7-{[(3S)-3-(piperidin-1-ylmethyl)-3,4-dihydro-1H-isoquinolin-2-yl]carbonyl}-3,4-dihydro-1H-isoquinolin-6-yl]-N-(4-hydroxyphenyl)-1,2-dimethylpyrrole-3-carboxamide], which “TR_FRET EKI G101V/WT selectivty ratio” value (BCL2 G101V [1]) is on record?
**A.** 6.8

**Q.** What about the pKi (BCL2 G101V [2]) of the same compound?
**A.** 9.40

**Q.** And the pIC50 (KMS12PE Bcl2 G101V)?
**A.** 8.08

**Q.** What about the pIC50 (KMS12PE Bcl2 D103V) of the same compound?
**A.** 8.80

**Q.** And the pIC50 (KMS12PE Bcl2 F104L)?
**A.** 8.06

**Q.** And the pIC50 (KMS12PE Bcl2 V156D)?
**A.** 8.23

**Q.** What about the pKi (BCL2 D103Y) of the same compound?
**A.** 9.85

**Q.** With `Cc1c(N(C(=O)c2cc(-c3cc4c(cc3C(=O)N3Cc5ccccc5C[C@H]3CN3CCC[C@H](C)C3)CN(C(=O)Cc3ccc(OCCN5CCOCC5)cc3F)CC4)n(C)c2C)c2ccc(O)cc2)cc(C#N)n1C` [Example 107] as the compound, how does the “TR_FRET EKI G101V/WT selectivty ratio” value (BCL2 G101V [1]) read?
**A.** 4.3

**Q.** What about the pKi (BCL2 G101V [2]) of the same compound?
**A.** 9.40

**Q.** And the pIC50 (KMS12PE Bcl2 G101V)?
**A.** 8.04

**Q.** What about the pIC50 (KMS12PE Bcl2 D103V) of the same compound?
**A.** 8.71

**Q.** What about the pIC50 (KMS12PE Bcl2 F104L) of the same compound?
**A.** 8.15

**Q.** What about the pIC50 (KMS12PE Bcl2 V156D) of the same compound?
**A.** 8.23

**Q.** And the pKi (BCL2 D103Y)?
**A.** 9.49
